Earlier results on one compound are cited in patent US6541424B2, “Manufacture and use of a herbicide formulation” (Helena Chemical Company, priority 2000, dated 2003).

The structures appear in SMILES notation.

As to `O=C(O)CNCP(=O)(O)O` [Glyphosate], the solubility in water result is “approximately 1.2%”.
